Experimental data published in patent US11571480B2, “Multi-ligand drug conjugates and uses thereof” (priority 2015, dated 2023).
Numbered stars: 1 amine (or outer) side, 2 acyl side, 3 side chain; on linkers, the order of the positions; unused ones are H or OH. Bridge positions count the residues as written; N and C are the ends. Square brackets hold non-standard residues; d marks the D form. Peptide text beside a SMILES is read from it. I, II: the chains in the order shown. * marks the point of attachment. Hexanoyl(6-succinimido-3yl) = O=C1CC([*:1])C(=O)N1CCCCCC(=O)[*:2]; Pteroyl = Nc1nc2ncc(CNc3ccc(C(=O)*)cc3)nc2c(=O)[nH]1; Dolaproine = CO[C@@H]([C@@H]1CCCN1)[C@@H](C)C(=O)O; Dil = CC[C@H](C)[C@H](NC)[C@@H](CC(=O)O)OC; PABC = O=C(OCc1ccc(N[*:1])cc1)[*:2]; X1 = C[C@@H](N*)[C@@H](O)c1ccccc1; Cit = NC(=O)NCCC[C@H](N)C(=O)O; NMeV = CN[C@H](C(=O)O)C(C)C

Tests used:
[1] = system: receptor positive cell lines; assay: Cytotoxicity test of conjugate LDC10BR, comparison over cell lines; assay type: cell-based
Procedure: (§1) Culture medium: RPMI 1640 Medium, no folic acid
(§2) 1) human nasopharyngeal cancer cell line KB, melanoma cell line A375, and human lung cancer cell H460 were incubated at 37° C., 5% CO2 in RPMI 1640 medium containing 10% fetal bovine serum, the cells were passaged every 2-3 days.
(§3) 2) human nasopharyngeal cancer cell line KB, melanoma cell line A375, and human lung cancer cell H460 were plated at 1×10^3 cells per well (96-well plate) and incubated for 8-12 h at 37° C., 5% CO2.
(§4) 3) Stock solutions of LDC conjugates or control were prepared in PBS solution. 100 μL/well of serially diluted LDC conjugates or control was added to the cells in the plate and incubated for 15-30 min at 37° C., 5% CO2. The culture medium in the wells was then removed by aspiration and the cells were incubated in fresh culture medium without conjugates (150 μL/well) for 2-3 days at 37° C., 5% CO2.
(§5) 4) CellTiter 96® Aqueous One Solution Cell Proliferation Assay (Promega) was added to each well to measure the amount of […] cells, and the plate was incubated in an incubator for 1 h at 37° C., 5% CO2.
(§6) 5) the plate was read at 490 nm on a microplate reader, and the cell survivals were compared for cells with or without the treatment of LDC conjugates. The LDC drug concentrations that are required for 50% cell death (IC50 values) were determined.

melanoma cell line A375 = assay: Cytotoxicity test of conjugate LDC10BR; assay type: cell-based; settings: A375, incubated 15-30 min, then 2-3 days
Procedure: as §1, §2, §3, §4, §5, §6

[2] = system: human lung cancer cell H460; assay: Cytotoxicity test of conjugate LDC10BR; assay type: cell-based; settings: H460, incubated 15-30 min, then 2-3 days
Procedure: as §1, §2, §3, §4, §5, §6

[3] = system: human nasopharyngeal cancer cell line KB; assay: Cytotoxicity test of conjugate LDC10BR; assay type: cell-based; settings: incubated 15-30 min, then 2-3 days
Procedure: as §1, §2, §3, §4, §5, §6

[4] = system: KB (folate receptor positive cell); assay: Endocytosis test of conjugate LDC10B (FITC conjugates, confocal microscope); assay type: cell-based, human; design: endocytosis after pre-incubation with free Folate: dose or concentration left out as unconfirmed
Procedure: (§7) The involved conjugates are as follows: Folate-FITC (FITC-ACP-Lys (Folate)-OH), 10B-FITC, and 10A-FITC.
as §1
(§8) 1) human nasopharyngeal cancer cell line KB, melanoma cell line A375, human lung cancer cell H460, ovarian cancer cell SKOV3, breast cancer cell line HCC1954 were incubated at 37° C., 5% CO2 in RPMI 1640 medium containing 10% fetal bovine serum, the cells were passaged every 2-3 days.
(§9) 2) human nasopharyngeal cancer cell line KB, melanoma cell line A375, human lung cancer cell H460, ovarian cancer cell SKOV3, breast cancer cell line HCC1954 were plated at 1×10^3 cells per well (96-well plate) and incubated for 8-12 h at 37° C., 5% CO2.
(§10) 3) 1 μM of FITC conjugates or control was added to the cells in the plate and incubated for 10-15 min at 37° C. The culture medium in the wells was then removed by aspiration and the cells were washed with PBS for three times.
(§11) 4) cells were then imaged with confocal microscope (brand) to visualize endocytosis.

[5] = system: A375 (folate receptor negative cell); assay: as above; assay type: cell-based; settings: 1 μM FITC conjugate, 10-15 min at 37° C.
Procedure: as §7, §1, §8, §9, §10, §11

Compound: CC[C@H](C)[C@@H]([C@@H](CC(=O)N1CCC[C@H]1[C@H](OC)[C@@H](C)C(=O)N[C@H](C)[C@@H](O)c1ccccc1)OC)N(C)C(=O)[C@@H](NC(=O)[C@H](C(C)C)N(C)C(=O)OCc1ccc(NC(=O)[C@H](CCCNC(N)=O)NC(=O)[C@@H](NC(=O)CCCCCN2C(=O)CC(SC[C@H](NC(=O)[C@H](CC(=O)O)NC(=O)CNC(=O)[C@H](CCCNC(=N)N)NC(=O)[C@H](CCC(=O)O)NC(=O)c3ccc(NCc4cnc5[nH]c(N)nc(=O)c5n4)cc3)C(=O)N[C@@H](CCCCN)C(=O)N[C@@H](CCC(=O)O)C(=O)N[C@@H](Cc3ccccc3)C(=O)N[C@@H](CC(C)C)C(=O)N[C@@H](Cc3c[nH]cn3)C(=O)N3CCC[C@H]3C(=O)N[C@@H](CO)C(=O)N[C@@H](CCCCN)C(=O)N[C@H](C(=O)N[C@@H](CC(=O)O)C(=O)N[C@@H](CC(C)C)C(=O)N3CCC[C@H]3C(=O)N[C@@H](CCCNC(=N)N)C(=O)O)C(C)C)C2=O)C(C)C)cc1)C(C)C (stereo partly shown) [LDC10BR] (I: Pteroyl-ERGDCKEFLHPSKVDLPR-OH / II: V[Cit][PABC][NMeV]V[Dil][Dolaproine]-X1; linker I:5-II:N via Hexanoyl(6-succinimido-3yl))
- cytotoxicity compared with bi-ligand conjugate LDC10B (in words) [1]: comparable to the bi-ligand conjugate LDC10B
- IC50 (melanoma cell line A375): 38.1 µM
- IC50 [2]: 6.4 µM
- IC50 [3]: 6.6 µM

Compound: FITC-ACP-Lys (Folate)-OH [Folate-FITC]
- endocytosis (enters cells) ([4]; 1 μM FITC conjugate, 10-15 min at 37° C., KB cells): enters KB cells
- endocytosis after pre-incubation with free Folate ([4]; pre-incubating KB cells with (50 fold excess of conjugate) free Folate, data not shown): completely blocked
- endocytosis (enters cells) [5]: but not A375 cells
